How the values were obtained:
[1] = system: estrogen-induced uterotrophic effect; test: In vivo anti-estrogenic (anti-uterotrophic) activity, immature rat model; design: species or system Wistar immature female rats; conditions: oral, 20 mg/kg (tamoxifen 20 mg/kg/day, 6j equimolar per method), 3 days, with estradiol 10 μg/kg/day s.c.; immature female rats
Protocol: The anti-estrogenic activity was assessed as previously described.[65]−[67] All experiments were carried out in accordance with the recommendations of the […] Animal Care and Use Committee. The experimental protocol was approved by “The Commission on the Ethics of Scientific Research”, Faculty of Pharmacy, Minia University (no. ES30/2021). 20-day-old Wistar immature female rats (40–50 g) from the animal care facility of Nahda University at Beni Suef (NUB) were allowed to acclimatize to lab conditions for 3 days before the experiment with free access to food and water. Estradiol was diluted in olive oil and subcutaneously injected on the loose dorsal skin in a dose of 10 μg/kg/day. […] Both compounds were dissolved in a mixture of DMSO, Tween 20, and saline (1:1:8, respectively) and orally administered. The rats were randomly assigned to […] (n = 6) subjected to daily s.c. injections of estradiol, except for the control group. […] On the 4th day, all rats were sacrificed by cervical dislocation, and the uteri were dissected free of fat and weighed immediately. […] The results were expressed as percent inhibition from the formula [drawing 1] […] It is noteworthy that doses of the tested compounds are calculated on a molar basis. […] Values are expressed as mean ± SEM.

Solubility test by HPLC = format: physicochemical
Text: Studying drug solubility is a crucial part of the pre-formulation study. It is an integral phase that every drug has been through in any development process to determine its bioavailability and the best excipients used during formulation. The solubility of compound 6j was detected using HPLC in methanol, ethanol, and acetonitrile. […] With such results, compound 6j requires the addition of a surfactant to increase its solubility, especially in water. Different types of surfactants could be used to study their effect on increasing solubility in future plans. We see that this compound has the potential to go through the formulation study. […] Accordingly, the active compound 6j was analyzed with SwissADME. The physicochemical properties of compound 6j, molecular weight (392.83 g/mol), fraction Csp3 (0.09), rotatable bonds (5), H-bond acceptors (4), H-bond donors (1), molar refractivity (112.41), and topological polar surface area (TPSA) (60.45 Å^2) were measured. For lipophilicity, log Po/w (XLOGP3) (3.93), log Po/w (WLOGP) (3.98), log Po/w (MLOGP) (2.66), log Po/w (SILICOS-IT) (5.03) and consensus It was measured as log Po/w (3.75). […] The drug-likeness status of 6j was detected as suitable according to Lipinski, Ghose, Veber, Egan, and Muegge’s limited rules.[44] […]

MCF-12A cells = test: Morphological assessment under inverted microscope; format: cell-based, human; conditions: 50 and 100 μM; 48 h after treatment
Protocol: (§1) In addition to the viability analyses, morphological evaluations were performed after treating the cells with different doses of 6j (5, 10, 20, 50, and 100 μM) to better understand what was going on in the plate wells. The cells were photographed under an inverted microscope 48 h after 6j treatment. […] The cell morphology has not deteriorated, and the membrane structures were preserved in a healthy way in the 6j-applied cells.
(§2) Morphological studies were performed to observe the effects of 6j on MCF-7 and MCF-12A cells, as previously reported.[63] In brief, 5 × 10^5 cells were seeded into six-well plates and incubated for 24 h. Afterward, increasing doses of compound 6j (5, 10, 20, 50, and 100 μM) were applied to the cells. The medium containing 0.1% DMSO was used as the untreated control. 48 h after treatments, the cells were photographed under an inverted microscope, Leica DM IL LED with a DFC-290 camera (Leica, Wetzlar, Germany).

MCF-7 cells = test: Morphological assessment under inverted microscope; format: cell-based, human; conditions: 50 and 100 μM; 48 h after treatment
Protocol: as §1, §2

SMILES: COc1cc(C=C2C(=O)Nc3ccc(Cl)cc32)ccc1OCc1ccccn1 (mixture of isomers) [6j]
- anti-uterotrophic activity (inhibition of estrogen-induced uterine weight) [1]: 38%
- water solubility (Solubility test by HPLC): did not detect any water solubility
- MCF-12A cell morphology / proliferation (MCF-12A cells): continued to proliferate
- MCF-7 cell morphology / proliferation (MCF-7 cells): remained stable by stopping cell division without being toxic
